# Measurements taken from publication PMC10969742, “A Phase I Study of the Oral Dual-Acting Pan-PI3K/mTOR Inhibitor Bimiralisib in Patients with Advanced Solid Tumors” (Cancers, 2024).
# Tested on: advanced solid tumors
# Test: Efficacy: objective tumor response per RECIST 1.1
# Assay type: in vivo, human
# Experimental: Efficacy of treatment was determined by measuring reported lesions at baseline and after every 2 cycles.
# [1] = PR patient, head and neck squamous cancer, NOTCH1T1997M, intermittent schedule A 200 mg
structure (smiles),measurement,setting,value
"Nc1cc(C(F)(F)F)c(-c2nc(N3CCOCC3)nc(N3CCOCC3)n2)cn1 [bimiralisib, 5-(4,6-Dimorpholino-1,3,5-triazin-2-yl)-4-(trifluoromethyl)pyridin-2-amine]","Best Overall Response: Complete response (CR), Number of Patients","All Schedules, n = 70",0 n (%)
same,"Best Overall Response: Missing (response could not be assessed), Number of Patients","All Schedules, n = 70",16 (22.9%) n (%)
same,"Best Overall Response: Non-CR/Non-PD, Number of Patients","All Schedules, n = 70",4 (5.7%) n (%)
same,"Best Overall Response: Partial response, Number of Patients","All Schedules, n = 70",1 (1.4%) n (%)
same,"Best Overall Response: Progressive disease (PD), Number of Patients","All Schedules, n = 70",19 (27.1%) n (%)
same,"Best Overall Response: Stable disease, Number of Patients","All Schedules, n = 70",30 (43%) n (%)
same,"Best Overall Response: Complete response (CR), Number of Patients",Continuous (n = 21),0 n (%)
same,"Best Overall Response: Missing (response could not be assessed), Number of Patients",Continuous (n = 21),9 (42.9%) n (%)
same,"Best Overall Response: Non-CR/Non-PD, Number of Patients",Continuous (n = 21),0 n (%)
same,"Best Overall Response: Partial response, Number of Patients",Continuous (n = 21),0 n (%)
same,"Best Overall Response: Progressive disease (PD), Number of Patients",Continuous (n = 21),7 (33.3%) n (%)
same,"Best Overall Response: Stable disease, Number of Patients",Continuous (n = 21),5 (23.8%) n (%)
same,"Best Overall Response: Complete response (CR), Number of Patients","Intermittent A, n = 25",0 n (%)
same,"Best Overall Response: Missing (response could not be assessed), Number of Patients","Intermittent A, n = 25",5 (20%) n (%)
same,"Best Overall Response: Non-CR/Non-PD, Number of Patients","Intermittent A, n = 25",1 (4%) n (%)
same,"Best Overall Response: Partial response, Number of Patients","Intermittent A, n = 25",1 (4%) n (%)
same,"Best Overall Response: Progressive disease (PD), Number of Patients","Intermittent A, n = 25",6 (24%) n (%)
same,"Best Overall Response: Stable disease, Number of Patients","Intermittent A, n = 25",12 (48%) n (%)
same,"Best Overall Response: Complete response (CR), Number of Patients","Intermittent B, n = 24",0 n (%)
same,"Best Overall Response: Missing (response could not be assessed), Number of Patients","Intermittent B, n = 24",2 (8.3%) n (%)
same,"Best Overall Response: Non-CR/Non-PD, Number of Patients","Intermittent B, n = 24",3 (12.5%) n (%)
same,"Best Overall Response: Partial response, Number of Patients","Intermittent B, n = 24",0 n (%)
same,"Best Overall Response: Progressive disease (PD), Number of Patients","Intermittent B, n = 24",6 (25%) n (%)
same,"Best Overall Response: Stable disease, Number of Patients","Intermittent B, n = 24",13 (54.2%) n (%)
same,Duration of response,[1],8.4 months
same,Reduction in sum of target lesions per RECIST 1.1,[1],85%
same,Time to response,[1],45 days
same,Patients with PR as best overall response,all 70 patients,1.4%
same,Complete response (CR),all patients,No patient achieved CR
same,Patients with SD,"all patients, 30 patients",43.0%
same,Number of partial responses,"all patients, head and neck squamous cancer patient with NOTCH1T1997M mutation",one
same,Patients with SD,continuous dosing,23.8%
same,Best overall response of single patient,"head and neck squamous cancer, loss of function NOTCH1T1997M mutation, intermittent schedule A 200 mg",partial response
same,Patients with SD,intermittent schedule A,48.0%
same,Patients with SD,intermittent schedule B,54.2%
